From patent US10098852B2 (LAUNX BIOMEDICAL CO., LTD., priority 2014, dated 2018) come the findings set out here.

Holding throughout (assay type): cell-based
Series [1] relates to A375 (amelanotic melanoma). Briefly: Cell viability analysis (WST-1), skin cancer cell line A375. The following applies: Homo sapiens. As for the experimental part:
(§1) The cell numbers were counted and reseed as 2×10^6 in cell culture plate/flask. Then, the culture medium was added to a volume of 10 ml, and the cells were cultured for 2-3 days. Then, the cells were suspended for loading into 96-well plates. The cell number was 3000/well and the volume of the culture medium was 100 μl each well.
(§2) Removing the original culture medium from 96-well plate. Then add 100 μl of commercially drug at a concentration of 10 μM per well. After 72 hours, add the diluted WST-1 reagent to the well with 100 μl/well, and the diluted WST-1 reagent was acquired from the dilution of 9:1 medium and WST-1 stock reagent. Finally, the total volume of each well was 200 μl/well. Culture the 96-well plate at 37° C. for 30 to 90 minutes. Detecting and calculate the survival rate of each cancer cells with an ELISA reader at OD450 nm.
(In general: Formazan colour is commonly taken as a measure of viable cells.)

Series [2] deals with NIH-OVCAR-3 (ovarian cancer cell line). Description: Cell viability analysis (WST-1), ovarian cancer cell line NIH-OVCAR-3. The following applies: Homo sapiens. As for the experimental part:
as §1, §2

Series [3] in a line: Cell viability analysis (WST-1), normal pulmonary epithelial cell line BEAS-2B. The following applies: human, BEAS-2B normal pulmonary epithelial cells, BEAS-2B normal cells.
Source text: Subculture the different types of cancer cells. The cancer cells lines includes lung cancer, gastric cancer, hepatic cancer, colon cancer, skin cancer, cervical cancer, prostate cancer, bladder cancer, breast cancer, leukemia, pancreatic cancer, ovarian cancer, tongue cancer, osteosarcoma, and renal cancer. The normal cells used in the control group included kidney cell line (HEK293) and human bronchial epithelial cell line BEAS-2B.
as §1, §2

Where two headings read alike, the source gives them in different places.

On to `Oc1ccc(OCc2ccccc2)cc1` [Monobenzone], for which the viability at 10 µM in series [1] (A-375, 72 h, A375, 10 μM, average of 4 tests, read-out: inhibition effect (survival rate of cells), Average) was determined as 76.4%; in series [1] (A-375, A375, 10 μM, 72 hours, test 0602-30 min, read-out: inhibition effect (survival rate of cells)), 56.7%; in series [1] (A-375, A375, 10 μM, 72 hours, test 0605-10 min, read-out: inhibition effect (survival rate of cells)) it was 64.8%; in series [1] (A-375, A375, 10 μM, 72 hours, test 0607-10 min, read-out: inhibition effect (survival rate of cells)), 77.3%; in series [1] (A-375, A375, 10 μM, 72 hours, test 0609-10 min, read-out: inhibition effect (survival rate of cells)), 107%; in series [2] (OVCAR-3, 72 h, NIH-OVCAR-3, 10 μM, average of 4 tests, read-out: inhibition effect (survival rate of cells), average), 91.5%. For the same molecule, the viability at 10 µM in series [2] (OVCAR-3, NIH-OVCAR-3, 10 μM, 72 hours, test 7-3-30 min, read-out: inhibition effect (survival rate of cells)) was 88.3%; in series [2] (OVCAR-3, NIH-OVCAR-3, 10 μM, 72 hours, test 7-4-30 min, read-out: inhibition effect (survival rate of cells)) it was 96.6%; in series [2] (OVCAR-3, NIH-OVCAR-3, 10 μM, 72 hours, test 7-7-30 min, read-out: inhibition effect (survival rate of cells)) it was 88.3%; in series [2] (OVCAR-3, NIH-OVCAR-3, 10 μM, 72 hours, test −4-30 min, read-out: inhibition effect (survival rate of cells)), 92.7%. For the same molecule, the viability at 72 h, 10 µM turned out to be 73.8% in series [3] (average of 4 tests, read-out: inhibition effect (survival rate of cells), average); 84.7% in series [3] (test 0510-10 min, read-out: inhibition effect (survival rate of cells)); 79.5% in series [3] (test 0512-10 min, read-out: inhibition effect (survival rate of cells)); 74.9% in series [3] (test 0515-10 min, read-out: inhibition effect (survival rate of cells)); 56.2% in series [3] (test 0517-10 min, read-out: inhibition effect (survival rate of cells)).
